# Source: PubChem BioAssay (NCI)
#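 Briefly, cells in 96-well plates were exposed to five compound concentrations for 48 h, and endpoints were estimated by linear interpolation. Here, GI50 denotes the concentration required for 50% inhibition of growth. At the TGI there is no net growth.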
# Key:
# Experiment in all cases: NCI-60 cell line screen, 48 h
# NCI-H23 lung = system: NCI-H23 lung
# HCT-15 colon = system: HCT-15 colon
# CCRF-CEM leukemia = system: CCRF-CEM leukemia
# A498 renal = system: A498 renal
# A549 NSCLC = system: A549 NSCLC
# BT-549 breast = system: BT-549 breast
# SF-539 CNS = system: SF-539 CNS
# K-562 leukemia = system: K-562 leukemia
# 786-0 renal = system: 786-0 renal
# MALME-3M melanoma = system: MALME-3M melanoma
# OVCAR-3 ovarian = system: OVCAR-3 ovarian
# NCI-H226 lung = system: NCI-H226 lung
# NCI-H522 lung = system: NCI-H522 lung
# SNB-75 CNS = system: SNB-75 CNS
# LOX IMVI melanoma = system: LOX IMVI melanoma
# DU-145 prostate = system: DU-145 prostate
# SK-MEL-28 melanoma = system: SK-MEL-28 melanoma
# T-47D breast = system: T-47D breast
# SF-268 CNS = system: SF-268 CNS
# OVCAR-4 ovarian = system: OVCAR-4 ovarian
# KM12 colon = system: KM12 colon
# ACHN renal = system: ACHN renal
# SF-295 CNS = system: SF-295 CNS
# SK-OV-3 ovarian = system: SK-OV-3 ovarian
# HCT-116 colon = system: HCT-116 colon
# SW-620 colon = system: SW-620 colon
# TK-10 renal = system: TK-10 renal
# U251 CNS = system: U251 CNS
# UACC-257 melanoma = system: UACC-257 melanoma
# M14 melanoma = system: M14 melanoma
# OVCAR-8 ovarian = system: OVCAR-8 ovarian
# SN12C renal = system: SN12C renal
# SNB-19 CNS = system: SNB-19 CNS
# PC-3 prostate = system: PC-3 prostate
# HCC-2998 colon = system: HCC-2998 colon
# NCI/ADR-RES ovarian = system: NCI/ADR-RES ovarian
# NCI-H460 lung = system: NCI-H460 lung
# MDA-MB-231 breast = system: MDA-MB-231 breast
# UO-31 renal = system: UO-31 renal
# HT29 colon = system: HT29 colon
# CAKI-1 renal = system: CAKI-1 renal
# MCF7 breast = system: MCF7 breast
# HOP-92 NSCLC = system: HOP-92 NSCLC
# OVCAR-5 ovarian = system: OVCAR-5 ovarian
# SK-MEL-2 melanoma = system: SK-MEL-2 melanoma
# MDA-MB-435 = system: MDA-MB-435
# IGROV1 ovarian = system: IGROV1 ovarian
# HOP-62 NSCLC = system: HOP-62 NSCLC
# RPMI-8226 leukemia = system: RPMI-8226 leukemia
# HL-60(TB) leukemia = system: HL-60(TB) leukemia
# EKVX NSCLC = system: EKVX NSCLC
# COLO 205 colon = system: COLO 205 colon
# SR leukemia = system: SR leukemia
# UACC-62 melanoma = system: UACC-62 melanoma
# RXF 393 renal = system: RXF 393 renal
# HS 578T breast = system: HS 578T breast
# MOLT-4 leukemia = system: MOLT-4 leukemia
# SK-MEL-5 melanoma = system: SK-MEL-5 melanoma
smiles,measurement,setting,value
COc1ccc(C(=O)n2nc(/C=C/c3ccc(O)c(OC)c3)cc2/C=C/c2ccc(O)c(OC)c2)cc1,GI50,NCI-H23 lung,840 nM
same,TGI,NCI-H23 lung,4.69 µM
same,GI50,HCT-15 colon,338 nM
same,TGI,HCT-15 colon,5.96 µM
same,GI50,CCRF-CEM leukemia,304 nM
same,TGI,CCRF-CEM leukemia,> 100 µM
same,GI50,A498 renal,2250 nM
same,TGI,A498 renal,7.26 µM
same,GI50,A549 NSCLC,1370 nM
same,TGI,A549 NSCLC,14 µM
same,GI50,BT-549 breast,466 nM
same,TGI,BT-549 breast,2320 nM
same,GI50,SF-539 CNS,365 nM
same,TGI,SF-539 CNS,2210 nM
same,GI50,K-562 leukemia,404 nM
same,TGI,K-562 leukemia,> 100 µM
same,GI50,786-0 renal,445 nM
same,TGI,786-0 renal,1840 nM
same,GI50,MALME-3M melanoma,556 nM
same,TGI,MALME-3M melanoma,3.59 µM
same,GI50,OVCAR-3 ovarian,449 nM
same,TGI,OVCAR-3 ovarian,2280 nM
same,GI50,NCI-H226 lung,2060 nM
same,TGI,NCI-H226 lung,8.52 µM
same,GI50,NCI-H522 lung,267 nM
same,TGI,NCI-H522 lung,785 nM
same,GI50,SNB-75 CNS,395 nM
same,TGI,SNB-75 CNS,1640 nM
same,GI50,LOX IMVI melanoma,467 nM
same,TGI,LOX IMVI melanoma,3.15 µM
same,GI50,DU-145 prostate,668 nM
same,TGI,DU-145 prostate,4.56 µM
same,GI50,SK-MEL-28 melanoma,0.602 µM
same,TGI,SK-MEL-28 melanoma,7.45 µM
same,GI50,T-47D breast,737 nM
same,TGI,T-47D breast,3.95 µM
same,GI50,SF-268 CNS,476 nM
same,TGI,SF-268 CNS,8.42 µM
same,GI50,OVCAR-4 ovarian,695 nM
same,TGI,OVCAR-4 ovarian,5.44 µM
same,GI50,KM12 colon,387 nM
same,TGI,KM12 colon,18.1 µM
same,GI50,ACHN renal,388 nM
same,TGI,ACHN renal,17.2 µM
same,GI50,SF-295 CNS,1640 nM
same,TGI,SF-295 CNS,6.28 µM
same,GI50,SK-OV-3 ovarian,465 nM
same,TGI,SK-OV-3 ovarian,1800 nM
same,GI50,HCT-116 colon,362 nM
same,TGI,HCT-116 colon,2690 nM
same,GI50,SW-620 colon,455 nM
same,TGI,SW-620 colon,11.9 µM
same,GI50,TK-10 renal,1910 nM
same,TGI,TK-10 renal,6.66 µM
same,GI50,U251 CNS,597 nM
same,TGI,U251 CNS,10.9 µM
same,GI50,UACC-257 melanoma,2030 nM
same,TGI,UACC-257 melanoma,12.1 µM
same,GI50,M14 melanoma,328 nM
same,TGI,M14 melanoma,1320 nM
same,GI50,OVCAR-8 ovarian,860 nM
same,TGI,OVCAR-8 ovarian,13.1 µM
same,GI50,SN12C renal,635 nM
same,TGI,SN12C renal,19.3 µM
same,GI50,SNB-19 CNS,1090 nM
same,TGI,SNB-19 CNS,18.8 µM
same,GI50,PC-3 prostate,496 nM
same,TGI,PC-3 prostate,3.78 µM
same,GI50,HCC-2998 colon,2160 nM
same,TGI,HCC-2998 colon,9.19 µM
same,GI50,NCI/ADR-RES ovarian,492 nM
same,TGI,NCI/ADR-RES ovarian,10.5 µM
same,GI50,NCI-H460 lung,370 nM
same,TGI,NCI-H460 lung,13.3 µM
same,GI50,MDA-MB-231 breast,575 nM
same,TGI,MDA-MB-231 breast,22.6 µM
same,GI50,UO-31 renal,393 nM
same,TGI,UO-31 renal,3.2 µM
same,GI50,HT29 colon,482 nM
same,TGI,HT29 colon,2240 nM
same,GI50,CAKI-1 renal,452 nM
same,TGI,CAKI-1 renal,15.3 µM
same,GI50,MCF7 breast,303 nM
same,TGI,MCF7 breast,1570 nM
same,GI50,HOP-92 NSCLC,0.609 µM
same,TGI,HOP-92 NSCLC,4.88 µM
same,GI50,OVCAR-5 ovarian,2610 nM
same,TGI,OVCAR-5 ovarian,> 100 µM
same,GI50,SK-MEL-2 melanoma,360 nM
same,TGI,SK-MEL-2 melanoma,934 nM
CN1C(=O)N(C)C2C1NN=c1s/c(=C\c3ccccc3F)c(=O)n12 (stereo unspecified),GI50,MDA-MB-435,38.7 nM
same,TGI,MDA-MB-435,184 nM
same,GI50,NCI-H23 lung,534 nM
same,TGI,NCI-H23 lung,> 100 µM
same,GI50,HCT-15 colon,145 nM
same,TGI,HCT-15 colon,> 100 µM
same,GI50,CCRF-CEM leukemia,335 nM
same,TGI,CCRF-CEM leukemia,> 100 µM
same,GI50,A498 renal,175 nM
same,TGI,A498 renal,0.929 µM
same,GI50,IGROV1 ovarian,633 nM
same,TGI,IGROV1 ovarian,> 100 µM
same,GI50,HOP-62 NSCLC,480 nM
same,TGI,HOP-62 NSCLC,> 100 µM
same,GI50,A549 NSCLC,439 nM
same,TGI,A549 NSCLC,> 100 µM
same,GI50,RPMI-8226 leukemia,364 nM
same,TGI,RPMI-8226 leukemia,> 66.8 µM
same,GI50,BT-549 breast,1390 nM
same,TGI,BT-549 breast,> 100000 nM
same,GI50,SF-539 CNS,217 nM
same,TGI,SF-539 CNS,639 nM
same,GI50,K-562 leukemia,117 nM
same,TGI,K-562 leukemia,> 100 µM
same,GI50,786-0 renal,741 nM
same,TGI,786-0 renal,> 100000 nM
same,GI50,HL-60(TB) leukemia,224 nM
same,TGI,HL-60(TB) leukemia,633 nM
same,GI50,MALME-3M melanoma,325 nM
same,TGI,MALME-3M melanoma,> 100 µM
same,GI50,EKVX NSCLC,398 nM
same,TGI,EKVX NSCLC,> 100 µM
same,GI50,OVCAR-3 ovarian,170 nM
same,TGI,OVCAR-3 ovarian,680 nM
same,GI50,NCI-H226 lung,1230 nM
same,TGI,NCI-H226 lung,> 100 µM
same,GI50,NCI-H522 lung,229 nM
same,GI50,SNB-75 CNS,80.7 nM
same,TGI,SNB-75 CNS,547 nM
same,GI50,LOX IMVI melanoma,565 nM
same,TGI,LOX IMVI melanoma,> 100 µM
same,GI50,DU-145 prostate,325 nM
same,TGI,DU-145 prostate,23.9 µM
same,GI50,SK-MEL-28 melanoma,5.75 µM
same,TGI,SK-MEL-28 melanoma,> 100 µM
same,GI50,COLO 205 colon,328 nM
same,TGI,COLO 205 colon,1430 nM
same,GI50,SF-268 CNS,1220 nM
same,TGI,SF-268 CNS,> 100 µM
same,GI50,OVCAR-4 ovarian,1410 nM
same,TGI,OVCAR-4 ovarian,> 100 µM
same,GI50,KM12 colon,198 nM
same,TGI,KM12 colon,> 60.2 µM
same,GI50,ACHN renal,684 nM
same,TGI,ACHN renal,> 100 µM
same,GI50,SF-295 CNS,186 nM
same,TGI,SF-295 CNS,> 100 µM
same,GI50,SK-OV-3 ovarian,446 nM
same,TGI,SK-OV-3 ovarian,> 100000 nM
same,GI50,SR leukemia,93 nM
same,TGI,SR leukemia,> 100 µM
same,GI50,HCT-116 colon,354 nM
same,TGI,HCT-116 colon,> 56600 nM
same,GI50,SW-620 colon,296 nM
same,TGI,SW-620 colon,> 100 µM
same,GI50,TK-10 renal,> 20800 nM
same,TGI,TK-10 renal,> 100 µM
same,GI50,UACC-62 melanoma,371 nM
same,TGI,UACC-62 melanoma,> 100 µM
same,GI50,U251 CNS,356 nM
same,TGI,U251 CNS,> 100 µM
same,GI50,UACC-257 melanoma,> 100000 nM
same,TGI,UACC-257 melanoma,> 100 µM
same,GI50,RXF 393 renal,159 nM
same,TGI,RXF 393 renal,491 nM
same,GI50,OVCAR-8 ovarian,516 nM
same,TGI,OVCAR-8 ovarian,> 100 µM
same,GI50,SN12C renal,671 nM
same,TGI,SN12C renal,> 100 µM
same,GI50,SNB-19 CNS,448 nM
same,TGI,SNB-19 CNS,> 100 µM
same,GI50,PC-3 prostate,296 nM
same,TGI,PC-3 prostate,> 100 µM
same,GI50,HCC-2998 colon,422 nM
same,TGI,HCC-2998 colon,> 100 µM
same,GI50,NCI/ADR-RES ovarian,229 nM
same,TGI,NCI/ADR-RES ovarian,> 100 µM
same,GI50,HS 578T breast,287 nM
same,TGI,HS 578T breast,> 100 µM
same,GI50,NCI-H460 lung,351 nM
same,TGI,NCI-H460 lung,> 100 µM
same,GI50,MOLT-4 leukemia,520 nM
same,TGI,MOLT-4 leukemia,> 100 µM
same,GI50,MDA-MB-231 breast,541 nM
same,TGI,MDA-MB-231 breast,> 41.6 µM
same,GI50,UO-31 renal,657 nM
same,TGI,UO-31 renal,> 100 µM
same,GI50,HT29 colon,312 nM
same,TGI,HT29 colon,> 36700 nM
same,GI50,CAKI-1 renal,140 nM
same,TGI,CAKI-1 renal,> 100 µM
same,GI50,MCF7 breast,69 nM
same,TGI,MCF7 breast,> 100000 nM
same,GI50,HOP-92 NSCLC,8.51 µM
same,TGI,HOP-92 NSCLC,> 100 µM
same,GI50,SK-MEL-5 melanoma,188 nM
same,TGI,SK-MEL-5 melanoma,4.11 µM
same,GI50,OVCAR-5 ovarian,496 nM
same,TGI,OVCAR-5 ovarian,> 100 µM
same,GI50,SK-MEL-2 melanoma,629 nM
same,TGI,SK-MEL-2 melanoma,> 100000 nM
